{"source": "paper PMC11003925", "about": "“Antimicrobial activity and properties of de novo design of short synthetic lipopeptides” (Folia Microbiologica, 2024)", "key": {"[1]": {"test_system": "HEK293T", "assay": "Cytotoxicity assay (xCELLigence impedance)", "type": "cell-based, human", "settings": "24 h exposure", "procedure": "(§1) Experiments were carried out using an xCELLigence RTCA DP Instrument (Roche Diagnostics GmbH, Mannheim, Germany) which was placed into an incubator (37 °C and 5% CO2). Cell proliferation and cytotoxicity experiments were performed using modified 16-well plates (E-plate, Roche Diagnostics GmbH, Mannheim, Germany). Microelectrodes were attached to the bottom of the wells for the impedance-based detection of attachment, spreading, and proliferation of the cells (Stoddart [2011]). This system monitors cellular events in real time without the incorporation of labels by measuring electrical impedance across an interdigitated microelectrode integrated into the bottom of this special tissue culture plate. This impedance measurement improves upon conventional endpoint assays and provides quantitative information about the biological status of the cells, including cell number, adhesion, viability, and morphology. Ninety microliters of cultivation medium was used for the blank sample, and subsequently, 100 µL of HepG2 or HEK293T cell suspension (7 × 10^5 cells/mL) was added and placed into the incubator (37 °C, 95% humidity, 5% CO2). […] Chrysophsin-3 at a concentration of 100 µg/mL was used as a positive control and solvent (deionized water) as a negative control. Subsequent incubation was performed for at least an additional 24 h. The result of the measurement was viability curves. After the measurement, percentages of tissue culture growth inhibition were calculated for all the tested substances, as follows: %inhibition=(1-(ΔϕCIsample)/(ΔϕCIcontrol))·100\n(§2) Δ∅CIsample … the difference between the first and last average CI (cell index) values of the tissue culture in the presence of the tested sample.\n(§3) Δ∅CIcontrol … the difference between the first and last average CI values of the tissue culture itself."}, "[2]": {"test_system": "HepG2", "assay": "Cytotoxicity assay (xCELLigence impedance)", "type": "cell-based, human", "settings": "24 h exposure", "procedure": "as §1, §2, §3"}, "[3]": {"test_system": "Staph. aureus DBM 3002", "type": "cell-based, Staphylococcus aureus", "procedure": "(§4) A Bioscreen C automated microbiology growth curve analysis system (Growth Curves, Piscataway, NJ, USA) was used for the quantitative determination of antimicrobial activity (minimal inhibitory concentration, MIC) of PAL/LCA-peptides. Optical density was measured with a wide bandpass filter (wavelength range 420–580 nm) at regular intervals and temperatures. This assay was performed in a special microtiter plate (10 × 10 wells) that allowed the simultaneous testing of a large number of samples against several microorganisms. The total testing volume was 100 µL, obtained by mixing 10 µL of microbial culture with OD600 equal to 0.1 with growth medium and a solution of the tested compounds. The positive controls were vancomycin and tetracycline for Bacillus subtilis (100 µg/mL) for Gram-positive bacteria, kanamycin, and tetracycline for Acinetobacter baumannii (100 µg/mL) for Gram-negative bacteria, and clotrimazole or amphotericin (100 µg/mL) for fungi. The maximal concentration of tested lipoproteins was 1 mg/mL. A pure growth medium was used as the negative control. The measurement period was 25 h. The lowest concentration with a 100% inhibition effect for 24 h of incubation was chosen as the MIC. The antibacterial activity of each compound was expressed as the minimum inhibitory concentration MIC (MIC is the lowest concentration of the compound needed to inhibit the growth of bacterial cells) and IC50 (IC50 is the concentration of the compound needed to inhibit the growth of bacterial cells by 50%)."}, "[4]": {"test_system": "Staph. aureus MRSA1", "type": "cell-based, Staphylococcus aureus", "procedure": "as §4"}, "[5]": {"test_system": "E. faecalis DBM 3075", "type": "cell-based", "procedure": "as §4"}, "[6]": {"test_system": "E. coli DBM 3001", "type": "cell-based", "procedure": "as §4"}, "[7]": {"test_system": "B. subtilis DBM 3006", "type": "cell-based, Bacillus subtilis", "procedure": "as §4"}, "[8]": {"test_system": "M. luteus DBM 3053", "type": "cell-based, Micrococcus luteus", "procedure": "as §4"}, "[9]": {"test_system": "A. baumannii DBM 3183", "assay": "microbe, parasite or virus in culture", "type": "cell-based, Acinetobacter baumannii", "settings": "DBM 3183, 25 h", "procedure": "as §4"}, "[10]": {"test_system": "plasmid pGreen 0029", "assay": "DNA binding assay (gel retardation)", "settings": "circular or linearized forms, tested ratios", "procedure": "This assay was performed as described by Park et al. ([1998]), with a few modifications. […] The reaction mixture was incubated at room temperature for 1 h. Subsequently, 4 µL of native loading buffer (10% Ficol, 10 mM Tris–HCl (pH 7.5), 50 mM EDTA, 0.25% bromophenol blue) was added. An aliquot was applied to 1% agarose gel electrophoresis in 0.5xTris borate-EDTA buffer. Circular plasmid DNA was isolated from (Luria–Bertani medium with AMPI in final concentration 100 µg/mL) bacterial strain E. coli DH5α / pBluescriptII KS- that had been grown overnight, and linearization was performed overnight by enzymatic reaction using restriction endonuclease EcoRV at 37 °C. The evaluation was performed by visualizing the DNA with the intercalation dye Midori Green Advanced DNA Stain under UV light. Reduced electrophoretic mobility compared to the control is considered to be evidence of peptide binding to DNA.\nAccording to the previous results, we decided to clarify one of the possible molecular interaction mechanisms, the ability of the studied lipopeptides to bind microbial plasmid DNA. Based on the assumption that pore formation is only one of the influencing factors, which arose from previous results, the effect on one of the possible intracellular targets, DNA, was determined. This determination was carried out on isolated plasmid DNA, specifically on two plasmids, pGreen 0029 and pBluescript II KS- in circular and linearized form."}, "[11]": {"test_system": "Staph. aureus MRSA1", "type": "cell-based, Staphylococcus aureus", "settings": "24 h, 2", "procedure": "This assay was used to determine how quick the effect of PAL/LCA-peptides is on bacteria, as well as whether the activity of these compounds is dependent on the presence of active bacterial metabolism (Kamysz et al. [2007]). The bacterial cultures were incubated overnight at 37 °C in Mueller–Hinton’s broth 2 or potassium phosphate buffer (0.1 M, pH 7). Cultures were diluted to OD600 equal to 0.1 and divided into 2 samples, and the final volume of each sample was 1 mL; after that, they were centrifuged (5000 × g, 10 min) to collect bacteria. […] The samples were incubated at 37 °C. At specific time intervals, samples of bacterial suspension were taken, diluted, and spread on Petri dishes with Mueller–Hinton’s agar to count the number of surviving cells as colony-forming units (CFU). The whole experiment lasted 24 h."}}, "note": "Residues, ends and D or L forms follow the SMILES beside them. *: point of attachment. Palmitoyl = CCCCCCCCCCCCCCCC(=O)*", "data": [{"smiles": "CCCCCCCCCCCCCCCC(=O)N[C@@H](CC(C)C)C(=O)N[C@H](C(=O)N[C@@H](CCCCN)C(=O)N[C@@H](CCCNC(=N)N)C(=O)N[C@@H](C)C(=O)NCC(N)=O)C(C)C", "note": "[SHP-1.2, PAL-LVKRAG-NH2] (Palmitoyl-LVKRAG-NH2)", "values": [{"measurement": "% inhibition", "setting": "[1]; c 50 µg/mL", "result": "37.6 ± 5.6", "unit": "%"}, {"measurement": "% inhibition", "setting": "[1]; c 100 µg/mL", "result": "77.8 ± 11.7", "unit": "%"}, {"measurement": "% inhibition", "setting": "[1]; c 200 µg/mL", "result": "73.1 ± 11.0", "unit": "%"}, {"measurement": "% inhibition", "setting": "[2]; c 50 µg/mL", "result": "4.1 ± 0.6", "unit": "%"}, {"measurement": "% inhibition", "setting": "[2]; c 100 µg/mL", "result": "42.2 ± 6.3", "unit": "%"}, {"measurement": "% inhibition", "setting": "[2]; c 200 µg/mL", "result": "67.9 ± 10.2", "unit": "%"}, {"measurement": "MIC", "setting": "[3]; 24 h", "result": 27.7, "unit": "µg/mL"}, {"measurement": "IC50", "setting": "[3]; 25 h", "result": 50.0, "unit": "µg/mL"}, {"measurement": "MIC", "setting": "[4]; 24 h", "result": 7.8, "unit": "µg/mL"}, {"measurement": "IC50", "setting": "[4]; 25 h", "result": 12.5, "unit": "µg/mL"}, {"measurement": "MIC", "setting": "[5]; DBM 3075, 24 h", "result": 32.6, "unit": "µg/mL"}, {"measurement": "IC50", "setting": "[5]; DBM 3075, 25 h", "result": 40, "unit": "µg/mL"}, {"measurement": "MIC", "setting": "[6]; DBM 3001, 24 h", "result": 78.9, "unit": "µg/mL"}, {"measurement": "IC50", "setting": "[6]; DBM 3001, 25 h", "result": 100.0, "unit": "µg/mL"}, {"measurement": "MIC", "setting": "[7]; DBM 3006, 24 h", "result": 16.9, "unit": "µg/mL"}, {"measurement": "IC50", "setting": "[7]; DBM 3006, 25 h", "result": 25.0, "unit": "µg/mL"}, {"measurement": "MIC", "setting": "[8]; DBM 3053, 24 h", "result": 6.4, "unit": "µg/mL"}, {"measurement": "IC50", "setting": "[8]; DBM 3053, 25 h", "result": 10.0, "unit": "µg/mL"}, {"measurement": "IC50", "setting": "[9]", "result": 60.0, "unit": "µg/mL"}, {"measurement": "influence on electrophoretic mobility of plasmid DNA", "setting": "[10]", "result": "did not exhibit any influence"}, {"measurement": "bacteria killed within half an hour", "setting": "[11]", "result": 100, "unit": "%"}]}]}
